# Legend:
# [1] = Storage stability of HOCl solution by container; assay type: physicochemical; conditions: any form of plastic container
# Description: The present invention relates to a method of manufacture of pharmaceutical grade hypochlorous acid (HOCl) solution. The solution is free of toxic by-products and is manufactured by means of a process that is novel. Furthermore, the manufacturing process results in high concentration HOCl solution at a pre-determined pH level. The solution is stable when kept in UV-protected glass for two years. Due to the method and process of manufacture, the solution is of a pharmaceutical grade.
# HOCl+UV light→OH+Cl^−+O3 [Reaction Formula 11] • It is therefore essential to store solutions containing HOCl in UV-protected inert containers. • ii) The container in which the solutions are kept should be made of glass. […] Glass containers avoid oxidation reactions between the container and HOCl. • iii) Stable HOCl production requires platinum grade reactants, including pure water without any organic and inorganic compounds or ions, as the oxidation of these compounds will deplete the HOCl concentration in the solution. • iv) Correcting the solution pH to between 4.0-5.80 immediately after manufacturing, through real-time buffering. Variation outside pH 4.0 to 5.80 will not only result in the dissociation of HOCl into Cl2 or OCl^− but will provide the environment for the decomposition of HOCl to form chlorate. It is therefore of utmost importance that this pH level
# [2] = cited from earlier work
compound,measurement,setting,value
"OCl [HOCl, hypochlorous acid]",Decomposition of HOCl in container,[1],marked decomposition
same,pKa,[2],7.53
